In patent US5164406A, “Method for enhancing transdermal penetration and compositions useful therein” (priority 1989, dated 1992):
Where a name gives a salt, the structure may show the parent alone. Read-outs that look alike come from different tables or passages of the source. Blank lines part the entries; values can stand above or below the compound they belong to.

What was measured:
[1] = general statement; cited from earlier work
[2] = Pig skin (in vitro) transdermal penetration; type: in vitro ADME, Yucatan miniature pig
Description: The test procedure is as described for rat skin studies with the exception that excised pig skin samples from Yucatan miniature pigs are utilized.
To address this issue, in vitro skin penetration of tripelennamine (TPL) in 2 saturated aqueous solutions, was measured using pig skin in accordance with the Pig Skin (in vitro) procedure earlier outlined. One solution contained 0.5% IMI. The other solution served as an aqueous control (buffered with NaOH to the same pH as the IMI containing solution).
Since all skin sections are dermatomed to 380 microns, h is a constant. In each composition of Table 5, the vehicle was saturated with the pharmacologic agent. Therefore, the "leaving tendency", or the thermodynamic activity of the pharmacologic agent in the vehicle, remained unchanged (K is the same for both compositions). this means that D must increase in order to explain the 3-fold increase in transdermal penetration. This is indicative of a true enhancement effect of topically applied IMI. The results of Table 5, substantiate that IMI acts as a true skin penetration enhancer. […] This may be one reason why use of a transdermal penetration enhancing amount of a selected imidazole or imidazole derivative of the present invention, in conjunction with a pharmacologically active agent whose transdermal penetration is capable of being enhanced, affords the advantageous enhancement of penetration achieved by the present invention.

[3] = for Increase in penetration relative to control: multiple of average control determination
Description: Polyoxyethylene stearyl ethers, 3 wt. %
Polyoxypropylene fatty alcohol ethers, 3 wt. %
Deionized water, 94 wt. %
Further, in all cases, unless otherwise noted, the tests were carried out at 37° C. and results were compared to penetration data for the same material in the oil/water emulsion base. Moreover, all percentages of composition components recited are, unless otherwise indicated, weight percent (wt. %) and are based upon the total weight of the composition.
The test method is carried out as follows:
A. Prior to testing, rats are routinely acclimated to the laboratory environment for seven days and gross observations are made to ensure good health of the animals to be tested.
B. Female Sprague Dawley rats (190-240 gm) are selected for testing and identified by cage label and ear tag number.
C. Diffusion Cell Preparation.
1. An O-ring is placed on a standard Franz Diffusion Cell. A stir bar is placed in the receptor compartment. Each cell is filled with approximately 4.5 ml sterile physiologic saline (receptor compartments are calibrated to contain 5.0 ml).
2. The jacketed diffusion cells are maintained at 37° C.±1° (or alternatively desired temperature) using an external water bath and a circulating pump.
D. Skin Section Preparation and Mounting
1. Test animals are sacrificed by intraperitoneal injection of 0.4 ml/100 gm. body weight sodium pentobarital (1 gm/ml).
2. The backs are lightly shaved using electric hair clippers.
3. A section of skin, measuring approximately 8 cm long by 7 cm wide, is removed from the back of each rat using a No. 20 scalpel assuring that the skin section is free from subcutaneous fat.
4. A piece of the skin section is mounted over an O-ring on the diffusion cell, epidermal side facing up. The donor compartment is placed on top of the skin section making a complete seal over the skin. A clamp is used to secure the skin section in place.
5. Air bubbles that collect under the skin are removed by inverting the diffusion cell and tapping it gently. The receptor compartment is filled with sterile physiologic saline to 5.0 ml.
E. Application of Test Materials
1. Test and control materials are applied to the skin using s syringe or spatula. The material is spread evenly and completely over the exposed skin surface using the tip of the syringe/spatula.
1. An HPLC carousel is loaded with microvials. Springs and inserts are placed into the microvials.
2. Receptor compartments are sampled at desired time intervals using a microliter (μl) syringe. The sample (approximately 160 μl) is placed into the insert. The microvial is sealed with a plastic cap.
3. When multiple sampling is required, the receptor compartment is replenished with sterile physiologic saline to maintain a 5.0 ml volume.
Samples are analyzed using standard analytical techniques. The presence of test material in the samples is indicative of transdermal penetration.

[4] = cited from earlier work
[5] = Human skin (in vitro) transdermal penetration; type: in vitro ADME; settings: Table 4
Text: The test procedure is as described for rat skin studies with the exception that normal excised human skin samples obtained from breast reduction surgery are utilized.
As shown by the results of Table 4, imidazole enhanced xylometazoline penetration through human skin 5.3 fold.

[6] = B + 1% drug + 0.5% IMI, Table 3
[7] = B + 5% TPL + 5% XYL, Table 3 Study I
[8] = B + 5% TRP + 5% XYL, Table 3 Study II

Compound: Cn1cc[n+](C)c1 [Compound Ia]
Heat stability [1]: unstable to heat

Increase in skin permeation of TPL [2]: approximately 3 fold | 24 hour penetration (total micrograms base) ([2]; aqueous control: saturated TPL/H2O, buffered with NaOH to the same pH, Table 5): 132 micrograms base | Increase in penetration relative to control ([2]; multiple of average control determinations, saturated TPL/H2O + 0.5% IMI, Table 5): 2.75 | 24 hour penetration (total micrograms base) ([2]; saturated TPL/H2O + 0.5% IMI, Table 5): 363 micrograms base | 24 hour penetration (total micrograms base) [3]: 196 micrograms base | Increase in TPL penetration [3]: 270% | Penetration of TPL enhanced by [3]: 1190%
Compound: CN(C)CCN(Cc1ccccc1)c1ccccn1 [TPL, TRIPELENNAMINE HCL, reference compound]
Skin irritation ([4]; IPM at 0.5%): little or no skin irritation | Skin irritation ([4]; IPM levels sufficient to enhance transdermal penetration): generally are irritating to skin

Compound: Cc1cc(C(C)(C)C)cc(C)c1CC1=NCCN1 [XYL, XYLO[…], HCL, reference compound]
Imidazole enhanced xylometazoline penetration through human skin ([5]; 2% XYL with 0.5% imidazole): 5.3 fold | 24 hour penetration (total micrograms base) ([5]; B + 2% XYL + 0.5% IMI): 203 micrograms base | 24 hour penetration (total micrograms base) ([5]; control: B + 2% XYL): 38 micrograms base | Increase in penetration relative to control ([5]; multiple of average control determination, B + 2% XYL + 0.5% IMI): 5.3 | Penetration enhanced by imidazole ([3]; 1% drug with 0.5% imidazole, Table 3 Studies V and VI): 610% | 24 hour penetration (total micrograms base) [3, 6]: 613 micrograms base | 24 hour penetration (total micrograms base) [3, 7]: 444 micrograms base | 24 hour penetration (total micrograms base) [3, 8]: 1053 micrograms base | Penetration of XYL ([3]; combination of TPL and XYL vs XYL alone, Table 3 Study I): remained fairly constant | Increase in transdermal penetration ([3]; combination of TRP and XYL, Table 3 Study II): 90% | 24 hour penetration (total micrograms base) ([3]; control: 1% of the drug alone in B, Table 3): 100 micrograms base | 24 hour penetration (total micrograms base) ([3]; control: 5% of the drug alone in B, Table 3): 544 micrograms base | Increase in penetration relative to control [3, 6]: 6.1 | Increase in penetration relative to control [3, 7]: 0.8 | Increase in penetration relative to control [3, 8]: 1.9

Compound: Cn1ccn(C)c1=O [compound IIa]
Heat stability [1]: heat stable
